Results as given in the supplement of paper PMC10307832.

Key:
Assay in all cases: relative viability (nuclei count vs DMSO), 5 days (fraction); higher = more cells survive
BAY61-3606 + Lapatinib = compound: COC1=C(C=C(C=C1)C2=CC3=NC=CN3C(=N2)NC4=C(C=CC=N4)C(=O)N)OC [BAY61-3606] + CS(=O)(=O)CCNCc1ccc(-c2ccc3ncnc(Nc4ccc(OCc5cccc(F)c5)c(Cl)c4)c3c2)o1 [Lapatinib] (partner 2 µM)
In short: (§1)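 For relative viability, nuclei counts in treated wells were divided by those in vehicle wells. Lung cancer cell lines had been pin-tool dosed in 1536-well plates the day after seeding and cultured for 5 days, then fixed and stained in one step (final 0.05% Triton X-100, 1% formaldehyde, 1 ug/ml Hoechst) and imaged at 4×. Doses were one drug alone or a fixed anchor-drug dose plus five library-drug doses (not always all listed) in √10 steps, and values are duplicate-plate medians.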

Doxorubicin + Alpelisib = compound: COc1cccc2c1C(=O)c1c(O)c3c(c(O)c1C2=O)C[C@@](O)(C(=O)CO)C[C@@H]3O[C@H]1C[C@H](N)[C@H](O)[C@H](C)O1 [Doxorubicin] + Cc1nc(NC(=O)N2CCC[C@H]2C(N)=O)sc1-c1ccnc(C(C)(C)C(F)(F)F)c1 [Alpelisib] (partner 2 µM)
In short: as §1

Doxorubicin + Olaparib = compound: COc1cccc2c1C(=O)c1c(O)c3c(c(O)c1C2=O)C[C@@](O)(C(=O)CO)C[C@@H]3O[C@H]1C[C@H](N)[C@H](O)[C@H](C)O1 [Doxorubicin] + O=C(c1cc(Cc2n[nH]c(=O)c3ccccc23)ccc1F)N1CCN(C(=O)C2CC2)CC1 [Olaparib] (partner 8 µM)
In short: as §1

Doxorubicin + Tozasertib = compound: COc1cccc2c1C(=O)c1c(O)c3c(c(O)c1C2=O)C[C@@](O)(C(=O)CO)C[C@@H]3O[C@H]1C[C@H](N)[C@H](O)[C@H](C)O1 [Doxorubicin] + Cc1cc(Nc2cc(N3CCN(C)CC3)nc(Sc3ccc(NC(=O)C4CC4)cc3)n2)n[nH]1 [Tozasertib] (partner 0.1 µM)
In short: as §1

Cell Line | relative viability (BAY61-3606 + Lapatinib; first compound 0.02 µM) | relative viability (BAY61-3606 + Lapatinib; first compound 0.2 µM) | relative viability (BAY61-3606 + Lapatinib; first compound 0.6325 µM) | relative viability (BAY61-3606 + Lapatinib; first compound 2 µM) | relative viability (Doxorubicin + Alpelisib; first compound 0.001 µM) | relative viability (Doxorubicin + Alpelisib; first compound 0.003162 µM) | relative viability (Doxorubicin + Alpelisib; first compound 0.01 µM) | relative viability (Doxorubicin + Alpelisib; first compound 0.03162 µM) | relative viability (Doxorubicin + Alpelisib; first compound 0.1 µM) | relative viability (Doxorubicin + Olaparib; first compound 0.001 µM) | relative viability (Doxorubicin + Olaparib; first compound 0.003162 µM) | relative viability (Doxorubicin + Olaparib; first compound 0.01 µM) | relative viability (Doxorubicin + Olaparib; first compound 0.03162 µM) | relative viability (Doxorubicin + Olaparib; first compound 0.1 µM) | relative viability (Doxorubicin + Tozasertib; first compound 0.001 µM) | relative viability (Doxorubicin + Tozasertib; first compound 0.003162 µM) | relative viability (Doxorubicin + Tozasertib; first compound 0.01 µM) | relative viability (Doxorubicin + Tozasertib; first compound 0.03162 µM) | relative viability (Doxorubicin + Tozasertib; first compound 0.1 µM) | relative viability (BAY61-3606 + Lapatinib; first compound 0.06325 µM)
LCLC-97TM1 | 1.23 | 1.05 | 1.05 | 0.864 | 0.228 | 0.219 | 0.269 | 0.24 | 0.285 | 0.398 | 0.514 | 0.438 | 0.234 | 0.394 | 0.183 | 0.191 | 0.216 | 0.268 | 0.319 | 
LCLC-103H |  |  |  |  | 0.917 | 0.993 | 0.981 | 1.06 | 1.08 | 0.726 | 0.82 | 0.726 | 0.799 | 0.769 | 0.531 | 0.411 | 0.465 | 0.414 | 0.529 | 
NCI-H441 |  |  |  |  |  | 0.713 | 0.684 | 0.234 | 0.393 | 0.545 | 0.518 | 0.511 | 0.235 | 0.239 |  | 0.612 | 0.511 | 0.249 | 0.245 | 
NCI-H522 |  |  |  |  |  |  |  |  |  | 0.524 | 0.658 | 0.678 | 0.638 | 0.589 | 0.581 | 0.577 | 0.512 | 0.488 | 0.609 | 
NCI-H1299 | 0.945 | 0.97 | 0.963 | 0.953 | 1.06 | 1.12 | 1.08 | 1.07 | 1.06 | 0.937 | 0.949 | 0.952 | 0.942 | 0.753 |  |  |  |  |  | 0.98
NCI-H1563 | 0.982 | 0.974 | 1.19 | 0.809 | 0.888 | 0.824 | 0.726 | 0.529 | 0.51 |  |  |  |  |  |  |  |  |  |  | 0.899
NCI-H1623 |  |  |  |  |  |  |  |  |  |  |  |  |  |  | 0.489 | 0.426 | 0.417 | 0.39 | 0.445 | 
NCI-H1648 |  |  |  |  |  |  |  |  |  | 0.618 | 1.05 | 0.5 | 0.492 | 0.791 | 0.55 | 0.471 | 0.348 | 0.304 | 0.456 | 
NCI-H1650 | 0.862 | 0.8 | 0.849 | 0.517 |  |  |  |  |  | 0.764 | 0.865 | 0.401 | 0.179 | 0.127 | 0.411 | 0.32 | 0.261 | 0.207 | 0.111 | 0.671
NCI-H1703 | 1.55 | 0.978 | 1.02 | 0.891 | 0.335 | 0.293 | 0.365 | 0.214 | 0.201 | 0.377 | 0.332 | 0.309 | 0.222 | 0.177 |  |  |  |  |  | 1.2
NCI-H1792 | 0.904 | 0.949 | 0.902 | 0.95 | 0.794 | 0.836 | 0.538 | 0.679 | 0.548 | 0.506 | 0.473 | 0.473 | 0.412 | 0.548 |  |  |  |  |  | 0.951
NCI-H2342 |  |  |  |  |  |  |  |  |  | 0.41 | 0.525 | 0.445 | 0.371 | 0.384 | 0.528 | 0.506 | 0.545 | 0.508 | 0.625 | 
SW 900 |  |  |  |  |  |  |  |  |  |  | 1.16 | 0.894 | 0.674 | 0.868 | 0.543 | 0.491 | 0.596 | 0.456 | 0.231 | 
